The text below walks through data of US9757385B2, “Method of treating leukemia using pharmaceutical formulation containing thienotriazolodiazepine compounds” (ONCOETHIX GmbH, priority 2013, dated 2017).

Counter-ions that a name gives are not always drawn.

One data set concerns the target FKBP12 (Homo sapiens, UniProt P62942). The settings on record: mTOR inhibitor of FKBP12; cited from earlier work.
Another data set relates to HDAC. The settings on record: cited from earlier work.
For data set [1], the system named is Akt phosphorylation on S473. The settings on record: cited from earlier work.
The subject of data set [2] is Akt phosphorylation on T308. Conditions: cited from earlier work.
The next data set concerns the target HDAC3 (Homo sapiens, UniProt O15379). Conditions: cited from earlier work.
In another data set the test system is PI3K/mTOR. Conditions: dual PI3K/mTOR inhibitor; cited from earlier work.
The test system of a further data set is BRD2 and BRD4. The data set can be described thus: BRD2 and BRD4 mRNA and protein in Jurkat cells. Type of data set: cell-based, human.
The next data set has as its system HL60. Kind of data set: MTT assay, anti-proliferative effect. Conditions: Homo sapiens, HL-60; HL60, 72-h exposure; range given for HL60, U937 and Jurkat together. The class given is cell-based. The method, then:
(§1) MTT assays were performed after 72 hours exposure. Protein levels were analyzed by Western Blot using commercial antibodies. RNA was extracted using the Qiagen RNAEasy and RT-PCR was performed using Fast SYBR Green on a StepOnePlus Real-Time PCR System. Combination effects were evaluated in four cell lines (HL60, U937, Jurkat and K562); compound (1-1) was administered with daunorubicin, azacytidine, dexamethasone, cytarabine or methotrexate. The 48 h Combination Index (CI) was determined by median effect plot analysis using CalcuSyn software expressed as the median and range of CI values among cell lines (Chou & Talalay analysis). CI<1 reflects synergy effects, CI=1 reflects additivity and CI>1 reflects antagonist effects.
(§2) Four established human cell lines derived from acute (HL60, U937), chronic (K562) myeloid leukemia, and acute lymphoblastic leukemia (Jurkat) were treated with increasing compound (1-1) doses. MTT assays were performed after 72 h exposure. GI50 and Emax values were calculated with the equation for sigmoidal dose response using Prism 5.00. Results are the mean±95% CI of at least 3 independent experiments performed in triplicate. […] Protein levels were analyzed by Western Blot using commercial antibodies. For cell cycle analysis and apoptosis induction, cells were stained with PI or Annexin V respectively, and analyzed using a FACScan flow cytometer. RT-PCR was performed using Fast SYBR Green Master Mix on a StepOnePlus Real-Time PCR System. […] Compound (1-1) combination studies were performed in cell lines exposed for 48 h to increasing doses of compound (1-1) alone or in combination several conventional anti-leukemic drugs, such as epigenetic modulators, steroids, m-TOR inhibitors and classical cytotoxic agents, and assessed using the Chou & Talalay method. […] The Combination Index (CI) was determined by median effect plot analysis using CalcuSyn software. […]
In general terms: Tetrazolium assays rely on reduction of a dye to a coloured formazan, in cell work by metabolically active cells.

A further data set relates to U937. Kind of data set: MTT assay, anti-proliferative effect. Type of data set: cell-based. Conditions: Homo sapiens, U-937; U937, 72-h exposure; range given for HL60, U937 and Jurkat together. The method, then:
as §1, §2

The next data set has as its system Jurkat. Kind of data set: MTT assay, anti-proliferative effect. Type of data set: cell-based. The settings on record: Homo sapiens, 72-h exposure, range given for HL60, U937 and Jurkat together. As for the experimental part:
as §1, §2

The subject of data set [3] is compound (1-1) sensitive cell lines (HL60, U937 and Jurkat). Kind of data set: Cell cycle analysis and apoptosis induction. The class given is cell-based, human. The method, then:
Four established human cell lines derived from acute (HL60, U937), chronic (K562) myeloid leukemia, and acute lymphoblastic leukemia (Jurkat) were treated with increasing compound (1-1) doses. MTT assays were performed after 72 h exposure. GI50 and Emax values were calculated with the equation for sigmoidal dose response using Prism 5.00. Results are the mean±95% CI of at least 3 independent experiments performed in triplicate. […] Protein levels were analyzed by Western Blot using commercial antibodies. For cell cycle analysis and apoptosis induction, cells were stained with PI or Annexin V respectively, and analyzed using a FACScan flow cytometer. RT-PCR was performed using Fast SYBR Green Master Mix on a StepOnePlus Real-Time PCR System. Cell cycle, apoptosis induction and qRT-PCR results are the mean±SD of at least 3 independent experiments, where *p<0.05, **p<0.001 and ***p<0.0001 versus control cells (0.1% DMSO), employing Anova then Dunnett's Multiple Comparison Test. Compound (1-1) combination studies were performed in cell lines exposed for 48 h to increasing doses of compound (1-1) alone or in combination several conventional anti-leukemic drugs, such as epigenetic modulators, steroids, m-TOR inhibitors and classical cytotoxic agents, and assessed using the Chou & Talalay method. For the sequential combination schemes, cell lines were exposed to azacytidine or panobinostat for 48 or 72 h, washed with drug-free medium and then treated with compound (1-1) for 24 or 48 h. The Combination Index (CI) was determined by median effect plot analysis using CalcuSyn software. CI<1 reflects synergy, CI=1 additivity and CI>1 antagonist effects. Results represent the median and range of 4 independent experiments performed in triplicate.

Data set [4] has as its system c-MYC. The data set can be described thus: c-MYC mRNA (RT-PCR) and protein (Western Blot) in sensitive cell lines. Type of data set: cell-based, human. The method, then: as §1
(§3) Four established human cell lines derived from acute (HL60, U937), chronic (K562) myeloid leukemia, and acute lymphoblastic leukemia (Jurkat) were treated with increasing compound (1-1) doses. MTT assays were performed after 72 h exposure. GI50 and Emax values were calculated with the equation for sigmoidal dose response using Prism 5.00. […] Protein levels were analyzed by Western Blot using commercial antibodies. For cell cycle analysis and apoptosis induction, cells were stained with PI or Annexin V respectively, and analyzed using a FACScan flow cytometer. […] The Combination Index (CI) was determined by median effect plot analysis using CalcuSyn software. […]
Background: Immunoblotting shows a protein as a band on a membrane.

In data set [5] the test system is c-MYC. The data set can be described thus: c-MYC RNA and protein in resistant cell line K562. The class given is cell-based, human. As for the experimental part:
as §1, §3

Data set [6] deals with K-562, NALM-1, CCRF-CEM, MOLT-3 and -4. Kind of data set: MTT assay, anti-proliferative effect, rest of the panel. The settings on record: Homo sapiens; the rest of the eight cell lines, 72-h exposure. Type of data set: cell-based. As for the experimental part:
as §1

The subject of data set [7] is HL60, U937, Jurkat and K562. Kind of data set: Combination Index, Chou & Talalay median effect analysis. Type of data set: cell-based, human. Conditions: OTX015-sensitive and resistant leukemic cells lines.
The next data set addresses PI3Kγ (p110γ) (Homo sapiens, UniProt P48736). The settings on record: cited from earlier work.
In another data set the target is PI3Kβ (p110β) (Homo sapiens, UniProt P42338). The settings on record: cited from earlier work.
PI3Kβ (p110β), sequence (P42338 whole entry, species assumed): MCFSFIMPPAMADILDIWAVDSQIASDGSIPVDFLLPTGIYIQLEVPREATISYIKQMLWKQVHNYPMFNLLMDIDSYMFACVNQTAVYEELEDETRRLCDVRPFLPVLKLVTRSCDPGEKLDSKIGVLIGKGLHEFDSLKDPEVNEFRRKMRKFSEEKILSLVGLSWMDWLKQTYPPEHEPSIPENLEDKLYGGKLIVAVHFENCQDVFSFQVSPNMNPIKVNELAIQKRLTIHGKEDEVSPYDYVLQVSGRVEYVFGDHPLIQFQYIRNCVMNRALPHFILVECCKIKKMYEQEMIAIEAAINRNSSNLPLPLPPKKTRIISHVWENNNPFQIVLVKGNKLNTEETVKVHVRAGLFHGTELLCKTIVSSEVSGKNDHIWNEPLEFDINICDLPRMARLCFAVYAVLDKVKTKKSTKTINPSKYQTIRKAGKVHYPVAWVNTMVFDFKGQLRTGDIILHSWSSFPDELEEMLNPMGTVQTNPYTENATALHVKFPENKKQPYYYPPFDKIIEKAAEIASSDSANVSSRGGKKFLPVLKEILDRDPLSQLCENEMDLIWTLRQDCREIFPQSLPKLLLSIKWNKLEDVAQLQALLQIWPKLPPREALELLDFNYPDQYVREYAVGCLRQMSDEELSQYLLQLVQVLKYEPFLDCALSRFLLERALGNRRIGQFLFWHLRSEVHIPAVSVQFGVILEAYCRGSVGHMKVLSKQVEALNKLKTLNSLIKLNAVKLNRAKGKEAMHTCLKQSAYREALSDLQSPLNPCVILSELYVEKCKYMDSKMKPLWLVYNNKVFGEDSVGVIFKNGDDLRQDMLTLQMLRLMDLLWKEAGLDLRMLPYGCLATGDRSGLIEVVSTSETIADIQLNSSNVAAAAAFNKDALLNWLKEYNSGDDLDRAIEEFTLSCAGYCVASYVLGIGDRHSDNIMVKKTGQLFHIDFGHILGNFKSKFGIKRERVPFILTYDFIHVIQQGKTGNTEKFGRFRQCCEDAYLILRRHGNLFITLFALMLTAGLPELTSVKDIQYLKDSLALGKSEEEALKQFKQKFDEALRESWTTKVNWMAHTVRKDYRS
PI3Kβ (p110β), sequence (P27986 whole entry partner, species assumed): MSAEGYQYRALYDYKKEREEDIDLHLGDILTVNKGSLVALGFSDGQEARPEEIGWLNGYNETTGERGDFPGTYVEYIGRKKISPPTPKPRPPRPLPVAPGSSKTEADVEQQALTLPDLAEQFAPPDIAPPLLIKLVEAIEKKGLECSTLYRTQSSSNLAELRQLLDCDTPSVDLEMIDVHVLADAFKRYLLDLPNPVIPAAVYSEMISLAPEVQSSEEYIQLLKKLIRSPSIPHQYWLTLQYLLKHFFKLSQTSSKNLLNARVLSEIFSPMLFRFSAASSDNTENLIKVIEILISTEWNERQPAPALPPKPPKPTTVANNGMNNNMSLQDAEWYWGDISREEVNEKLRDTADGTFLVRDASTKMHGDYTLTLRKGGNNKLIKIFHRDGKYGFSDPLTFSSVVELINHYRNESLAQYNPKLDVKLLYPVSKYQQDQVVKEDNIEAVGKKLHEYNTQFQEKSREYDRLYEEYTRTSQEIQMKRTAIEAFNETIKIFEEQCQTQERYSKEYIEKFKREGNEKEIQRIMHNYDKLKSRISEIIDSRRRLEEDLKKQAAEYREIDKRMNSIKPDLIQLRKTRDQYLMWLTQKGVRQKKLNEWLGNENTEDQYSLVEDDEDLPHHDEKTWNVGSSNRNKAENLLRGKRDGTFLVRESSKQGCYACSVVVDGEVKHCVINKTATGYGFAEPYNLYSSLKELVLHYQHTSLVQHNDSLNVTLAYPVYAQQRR
In a further data set the target is mTOR (Homo sapiens, UniProt P42345). Conditions: cited from earlier work.
The subject of a further data set is Reh cells. Conditions: in Reh cells; cited from earlier work.
The test system of another data set is MOLT-4 cells. The settings on record: in MOLT-4 cells; cited from earlier work.
Setting [8] is: sensitive leukemic cells, 48 h exposure to 500 nM (Example 8).

PI3Kγ (p110γ), sequence (P48736 whole entry, species assumed): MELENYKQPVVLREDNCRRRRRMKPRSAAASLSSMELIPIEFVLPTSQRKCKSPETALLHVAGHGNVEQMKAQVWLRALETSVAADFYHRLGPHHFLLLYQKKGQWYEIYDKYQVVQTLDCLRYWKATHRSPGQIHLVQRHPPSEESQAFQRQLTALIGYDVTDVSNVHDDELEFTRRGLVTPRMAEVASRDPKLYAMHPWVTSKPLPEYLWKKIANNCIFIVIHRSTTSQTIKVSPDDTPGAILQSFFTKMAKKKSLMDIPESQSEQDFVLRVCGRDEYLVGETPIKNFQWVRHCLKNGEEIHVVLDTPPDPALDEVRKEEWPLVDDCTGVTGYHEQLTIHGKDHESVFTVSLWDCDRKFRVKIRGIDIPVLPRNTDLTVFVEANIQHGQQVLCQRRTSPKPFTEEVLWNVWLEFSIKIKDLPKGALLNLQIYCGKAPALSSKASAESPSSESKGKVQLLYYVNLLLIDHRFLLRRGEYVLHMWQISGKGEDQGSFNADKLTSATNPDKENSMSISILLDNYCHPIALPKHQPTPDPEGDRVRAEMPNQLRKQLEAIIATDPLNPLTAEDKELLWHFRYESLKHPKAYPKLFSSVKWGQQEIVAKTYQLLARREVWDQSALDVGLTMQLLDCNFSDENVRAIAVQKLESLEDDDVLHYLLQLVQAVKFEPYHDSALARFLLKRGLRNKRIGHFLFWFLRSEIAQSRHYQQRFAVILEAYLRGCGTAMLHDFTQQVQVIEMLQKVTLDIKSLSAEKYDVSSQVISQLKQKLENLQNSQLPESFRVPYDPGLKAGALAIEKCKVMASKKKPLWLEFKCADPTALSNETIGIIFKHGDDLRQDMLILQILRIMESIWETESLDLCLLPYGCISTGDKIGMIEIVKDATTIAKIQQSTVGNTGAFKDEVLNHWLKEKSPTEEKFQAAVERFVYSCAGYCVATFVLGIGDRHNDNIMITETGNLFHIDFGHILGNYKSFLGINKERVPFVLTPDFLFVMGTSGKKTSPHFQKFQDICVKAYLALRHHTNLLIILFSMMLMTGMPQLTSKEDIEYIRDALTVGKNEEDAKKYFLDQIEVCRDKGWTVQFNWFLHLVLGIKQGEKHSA
FKBP12, sequence (P62942 whole entry, species assumed): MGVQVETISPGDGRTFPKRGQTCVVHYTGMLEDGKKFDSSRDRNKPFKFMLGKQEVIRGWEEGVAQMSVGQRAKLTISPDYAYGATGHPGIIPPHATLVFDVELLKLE
HDAC3, sequence (O15379 whole entry, species assumed): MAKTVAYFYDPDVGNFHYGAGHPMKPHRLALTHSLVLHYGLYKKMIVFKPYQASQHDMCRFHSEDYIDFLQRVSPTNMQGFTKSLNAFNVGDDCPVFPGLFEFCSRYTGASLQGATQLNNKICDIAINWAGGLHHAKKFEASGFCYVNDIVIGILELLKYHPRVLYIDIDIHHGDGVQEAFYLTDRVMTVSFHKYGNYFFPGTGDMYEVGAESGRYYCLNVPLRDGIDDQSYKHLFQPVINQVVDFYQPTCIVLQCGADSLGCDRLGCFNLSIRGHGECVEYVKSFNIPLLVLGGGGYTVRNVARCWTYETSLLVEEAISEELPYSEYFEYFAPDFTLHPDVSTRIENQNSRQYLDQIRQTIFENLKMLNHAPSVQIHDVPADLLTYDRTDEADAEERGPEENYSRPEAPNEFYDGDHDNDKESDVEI
HDAC3, sequence (Q9Y618 395-489 partner limits assumed, species assumed): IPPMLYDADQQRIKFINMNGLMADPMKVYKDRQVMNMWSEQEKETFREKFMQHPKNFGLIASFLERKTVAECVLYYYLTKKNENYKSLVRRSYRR

For the molecule `CO[C@H]1C[C@@H]2CC[C@@H](C)[C@@](O)(O2)C(=O)C(=O)N2CCCC[C@H]2C(=O)O[C@H]([C@H](C)C[C@@H]2CC[C@@H](OCCO)[C@H](OC)C2)CC(=O)[C@H](C)/C=C(\C)[C@@H](O)[C@@H](OC)C(=O)[C@H](C)C[C@H](C)/C=C/C=C/C=C/1C` [Everolimus], the IC50 – broadly, the point on the concentration scale where inhibition reaches its midpoint – at FKBP12 was 1.6 to 2.4 nM.
Consider `CCCC(CCC)C(=O)O` [Valproic acid sodium salt], for which the IC50 in the data set on HDAC is 400000 nM.
For the molecule `COc1ccc(-c2cc3c(C)nc(N)nc3n([C@H]3CC[C@H](OCCO)CC3)c2=O)cn1` [PF-04691502], the half-inhibitory concentration (IC50) in data set [1] is 3.8 nM; in data set [2], 7.5 nM.
For `Cc1cc(Cl)ccc1OCCCC(=O)NO` [Droxinostat, 4-(4-Chloro-2-methylphenoxy)-N-hydroxybutanamide], the concentration for half-maximal inhibition (IC50) at HDAC3 was 16.9 µM.
With `COc1ccc(-c2ccc3ncc4c(c3c2)n(-c2ccc(N3CCNCC3)c(C(F)(F)F)c2)c(=O)n4C)cn1` [NVP-BGT226], the IC50 in the data set with PI3K/mTOR is 1 nM.
For the molecule `CC(C)[C@H](C(=O)Nc1ccc(C(=O)NO)cc1)c1ccccc1` [AR-42, (S)-N-hydroxy-4-(3-methyl-2-phenylbutanamido)benzamide], the IC50 with HDAC was 30 nM.
Take `CCN(CC)Cc1ccc2cc(COC(=O)Nc3ccc(C(=O)NO)cc3)ccc2c1` [ITF2357]: the IC50 in the data set with HDAC is 7.5 to 16 nM.
For `Cc1sc2c(c1C)C(c1ccc(Cl)cc1)=N[C@@H](CC(=O)Nc1ccc(O)cc1)c1nnc(C)n1-2` [compound (1-1), 2-[(6S)-4-(4-chlorophenyl)-2,3,9-trimethyl-6H-thienol[3,2-f]-[1,2,4]triazolo[4,3-a][1,4]diazepin-6-yl]-N-(4-hydroxyphenyl)acetamide dihydrate], the “BRD2 and BRD4 protein levels” value with BRD2 and BRD4 is “without modifying protein levels”. Also, the “mRNA levels of BRD2 and BRD4” value with BRD2 and BRD4 was “up-regulation”. Moreover, the GI50 – broadly, the concentration giving 50% growth inhibition – was 230 to 384 nM with HL60, 230 to 384 nM in the data set on U937, 230 to 384 nM in the data set on Jurkat and not below 1000 nM in data set [6]. For the same molecule, the induction of apoptosis result in data set [3] (sensitive cell lines (Example 7)) is reported as “without induction of apoptosis”; in [3] (setting [8]) it was “slight induction of apoptosis”. For the same molecule, the cell cycle effect result in data set [3] (sensitive cell lines, time-dependent (Example 7)) is on record as “cell cycle arrest in G1”; in data set [3] (setting [8]) it was “increased proportion of cells in cell cycle phase G0/G1”. Further, in the data set on c-MYC [4] (sensitive cell lines (Example 8)), the “c-MYC mRNA and protein levels” value is “rapid and sustained downregulation”. Also, the “cMYC mRNA and protein levels” value with c-MYC [4] (sensitive cell lines, 500 nM, after 6-h and up to 72-h treatment) is reported as “down-regulated”. The “levels of c-MYC RNA” value in the data set on c-MYC [5] (K562, after 4-h and 24-h exposure) is “decreased levels”. Moreover, in the data set on c-MYC [5] (K562, even after 72 h of treatment), the cMYC protein levels entry was “constant”. Further, the “effect in concomitant combination with demethylating agents, HDAC and mTOR inhibitors, glucocorticoids, and conventional cytotoxic drugs” value in data set [7] is given as “strong synergistic effects”.
Take GSK2126458: the values for the Ki on PI3Kγ (p110γ) and at PI3Kβ (p110β) were 0.024 nM and 0.13 nM, respectively.
With `CCCCc1nc2cc(/C=C/C(=O)NO)ccc2n1CCN(CC)CC` [SB939, (E)-3-(2-butyl-1-(2-(diethylamino)ethyl)-1H-benzo[d]imidazol-5-yl)-N-hydioxyacrylamide], in the data set on HDAC, the IC50 is 40 to 140 nM.
Consider `CO[C@H]1C[C@@H]2CC[C@@H](C)[C@@](O)(O2)C(=O)C(=O)N2CCCC[C@H]2C(=O)O[C@H]([C@H](C)C[C@@H]2CC[C@@H](OC(=O)C(C)(CO)CO)[C@H](OC)C2)CC(=O)[C@H](C)/C=C(\C)[C@@H](O)[C@@H](OC)C(=O)[C@H](C)C[C@H](C)/C=C/C=C/C=C/1C` [Temsirolimus], for which the IC50 on mTOR was 1.76 nM.
For the molecule `Cc1[nH]c2ccccc2c1CCNCc1ccc(/C=C/C(=O)NO)cc1` [Panobinostat], the values for the half-maximal inhibitory concentration (IC50) in the data set with Reh cells and with MOLT-4 cells were 20 nM and 5 nM, respectively.
Turning to `CN(C)c1ccc(C(=O)NCCCCCCC(=O)NO)cc1` [M344], the IC50 in the data set with HDAC was 100 nM.
As to `Cn1c(/C=C/C(=O)NO)ccc1/C=C/C(=O)c1cccc(F)c1` [MC1568], the IC50 with HDAC is 220 nM.
Consider “(3S,6S,9S,15aR)-9-((R)-sec-butyl)-6-((1-methoxy-1H-indol-2-yl)methyl)-3-(6-oxooetyl)decahydro-1H-pyrido[1,2-a][1,4,7,10]tetraazacyclododecine-1,4,7,10(12H)-tetraone [Apicidin]”, for which the IC50 in the data set with HDAC was 0.7 nM.
Take `O=C(/C=C/c1ccc(CN(CCO)CCc2c[nH]c3ccccc23)cc1)NO` [LAQ824]: the IC50 in the data set with HDAC is 32 nM.
